The numbers were not newly measured in patent US12472143B2, “Blend compositions for oral administration as a rapidly dissolving powder and/or suspension” (MARENDA PHARMACEUTICALS LLC, priority 2017, dated 2025), which cites them from elsewhere.

`CC(C)Cc1ccc(C(C)C(=O)O)cc1` (stereo not shown) [Ibuprofen]: the solubility in water entry was “sparingly soluble”.
